Laboratory results from paper PMC3913857, “Regorafenib in Japanese patients with solid tumors: phase I study of safety, efficacy, and pharmacokinetics” (Investigational New Drugs, 2013).
Marks after values point to notes of the source that are not given here.

Experiment: clinical
Parameters: species or system Japanese patients
Details: in vivo; for AUC from 0 to 24 h of metabolite as share of regorafenib / t 1/2 (terminal half life) / t max / AUC / AUC0–24 / C max: human
Method: Patients who provided at least one evaluable pharmacokinetic sample were eligible for pharmacokinetic analyses.
Plasma concentrations of regorafenib and its metabolites were determined by fully validated liquid chromatography–tandem mass spectrometry after protein precipitation with acetonitrile/ammonium acetate buffer containing the internal standards [^2H3 ^15N] BAY 73-4506 (for regorafenib), [^2H3 ^15N] […] BAY 81-8752 (for the M5 metabolite).

SMILES	AUC from 0 to 24 h of metabolite as share of regorafenib [%]	t 1/2 (terminal half life)	t max	AUC (po, 160 mg)	AUC0–24 (po, 160 mg)	C max (po, 160 mg)	t 1/2 (terminal half life) (po, 160 mg)	Change in t max and t 1/2 between single dosing and 21-day multiple dosing	t max (po, 160 mg)
CNC(=O)c1cc(Oc2ccc(NC(=O)Nc3ccc(Cl)c(C(F)(F)F)c3)c(F)c2)cc[n+]1[O-] [M2]	47.3	29.5 (24.1) h	4.3 (0.6–47.9) h	7,820.6 (301.2) μg.h/L	3,697.2 (340.5) μg.h/L	273.3 (388.9) μg/L	24.8 (27.7) h	no significant change	–
NC(=O)c1cc(Oc2ccc(NC(=O)Nc3ccc(Cl)c(C(F)(F)F)c3)c(F)c2)cc[n+]1[O-] [M5]	21.5	57.5 (33.7) h	35.6 (0.6–73.2) h	3,441.8 (112.0)^a μg.h/L	380.5/164.2 (112.0)^a μg.h/L	31.1 (167.3)^a μg/L	–	no significant change	24.0 (2.8–71.3)^a h
